Measured values from patent US20230056360A1, “BLOOD-BRAIN-BARRIER SYSTEMS” (priority 2020, published 2023).
“Also recorded” adds a separate entry of the source.

Tested on: iBMECs
Assay: blood-to-brain permeability of fluorescent molecules across iBMEC monolayers on transwells, monoculture or brain region-specific NVUs
Conditions: iBMECs alone or co-cultured over primary rat neural cultures (cortex, striatum, hippocampus, cerebellum, spinal cord); one-way ANOVA, Tukey; result in words
Method: In order to obtain region-specific primary neural cultures, E18 rat embryos were extracted from a pregnant female. Embryos were dissected and several regions of the CNS were separated including cortex, striatum, hippocampus, cerebellum and spinal cord. The regions were enzymatically dissociated into single cells before seeded pre-coated MEA plates and petri dishes, in which they were cultured in Neurobasal medium (Sigma) for two weeks. In order to validate the various primary cell cultures, the cells were stained for the neuronal marker βIII-tubulin and the glial marker GFAP (FIG. 2).
iPSCs were differentiated into iBMECs as previously described. On Day 8 of differentiation, cells were enzymatically dissociated into single cell suspensions and seeded on precoated transwell inserts. 24 hours post seeding, iBMEC inserts were placed on top of primary neural cultures derived from the different CNS regions (FIG. 3) where they were cultured for three additional days.
Fluorescence was measured using a plate reader and calculated into concentrations using a calibration curve with known concentrations. Next, the inventors plotted the chart and extracted the slope for each transwell. Slopes from empty transwells were subtracted from the obtained value and the results were used to calculate the permeability, expressed as 10-5 cm/min.

Row | Structure (SMILES) | differences in permeability between iBMEC monoculture and NVUs of different brain regions
1 | O=[N+]([O-])c1ccc(N[C@H]2C(O)O[C@H](CO)[C@@H](O)[C@@H]2O)c2nonc12 (stereo partly drawn) [2-NDBG, 2-[N-(7-nitrobenz-2-oxa-1,3-diazol-4-yl)amino]-2-deoxy-D-glucose] | not different between the NVUs
2 | O=C([O-])c1ccccc1-c1c2ccc(=O)cc-2oc2cc([O-])ccc12.[Na+].[Na+] [sodium fluorescein] | significantly more permeable in the monoculture compared to the NVUs of the cortex, cerebellum, striatum and hippocampus; also recorded: significance differences in permeability were also observed between spinal cord and other NVUs
